In patent US20080081781A1, “Methods and compositions for the treatment of metabolic syndrome” (priority 2004, published 2008):

Columns and labels:
[1] = tested on: LDLR promoter; assay: LDLR promoter activity, pLDLR234Luc reporter in HepG2 cells; format: cell-based, human; conditions: pLDLR234Luc HepG2, LPDS or LPDS and cholesterol medium, 8 hour treatment
Text: HepG2 cells were transfected with the reporter construct pLDLR234Luc, which contains the SRE- I motif and the sterol-independent regulatory element that mediates the cytokine oncostatin M-induced transcription of the LDLR gene.

[2] = tested on: HMG-CoA reductase mRNA; assay: HMG-CoA reductase mRNA stability in HepG2 cells; format: cell-based, human; conditions: HepG2, berberine 15 hours then actinomycin D
Experimental: HepG2 cells were cultured and then left alone or treated with berberine for 15 hours. After 15 hours, actinomycin D (5 μg/ml) was added to cells at 0, 20, 40, 60, 90, 120, or 150 minutes. Total mRNA was isolated and analyzed by Northern blot for the amount of LDLR mRNA. […] In contrast, the mRNA stability of HMG-CoA reductase was not altered by berberine.

[3] = tested on: LDLR mRNA 3'UTR; assay: Luc-LDLR 3'UTR chimeric transcripts in transfected HepG2 cells; format: cell-based, human; conditions: transfected HepG2, berberine eight hours
Text: Three consecutive fragments of LDLR 3 ′UTR were inserted into a cytomegalovirus promoter driven Luc plasmid (pLuc) at the 3′ end of the Luc coding sequence before the SV40 polyadenylation signal. The wild-type Luc reporter plasmid pLuc was constructed by insertion of the Luc cDNA into the HindIII and Xba sites of pcDNA3.1/Zeo(+). Addition of the LDLR 3/UTR was accomplished by PCR amplifying different regions of the 2.5 kb 3′UTR of LDLR mRNA using XbaI-tailed primers and pLDLR3 as the template. The wild type pLuc and the chimeric plasmids pLuc-UTR-2, UTR-3 and UTR-4 were transfected into HepG2 cells (FIG. 11). Cells seeded in culture dishes were transiently transfected with the chimeric plasmids. Twenty-four hours after transfection, cells were trypsinized and reseeded equally into two dishes for each plasmid transfection. After overnight incubation, one dish was treated with dimethylsulfoxide as the solvent control and another was treated with berberine for eight hours. […]
To create ARE deletion constructs, an Apa site at nt 3,384 was generated for deleting ARE3, and an Apa1 site at nt 3,334 for deleting ARE2 by site-directed mutagenesis using pLuc/UTR-2 as the template. […] The effects of berberine on the chimeric Luc transcripts were determined by measuring Luc mRNA using a quantitative real-time RT-PCR assay. […]

[4] = in vitro; format: in vitro ADME; conditions: rabbit
Experimental: The rabbit blood protein binding rate was measured by in vitro dialysis at a rate of 38±3% (XD±S, n=6).

[5] = Toxicity analysis (LD50) in mice; conditions: mouse, in vivo
Experimental: Rats and mice were administered berberine through a variety of techniques, including orally, through subcutaneous injection, peritoneal injection and intravenous injection.

[6] = tested on: patients with metabolic syndrome; assay: Berberine in patients with metabolic syndrome (Table 10); format: in vivo, human; conditions: for Blood Pressure / Blood Cholesterol / Blood Insulin / Blood Triglyceride / FBG (fasting blood glucose): patients with metabolic syndrome (n = 28); for Blood Cholesterol / Blood Insulin / Blood Triglyceride / FBG (fasting blood glucose): means ± SEs
Text: Twenty-eight patients 28 (male/female, 17/11; age, 57±8 y) were diagnosed as having metabolic syndrome if they met three or more of the following criteria: fasting blood glucose>7 mmol/L, serum triglyceride>1.7 mmol/L, fasting blood insulin>13 mmcU/mL, blood pressure>135/85 and/or BMI>23. (Eckel, Lancet 365 (9468), 1415-28 (2005); Executive Summary, JAMA 285, 2486-2497 (2001); Balkau, Diabet. Med. 16, 442-443 (1999)) The patients were enrolled in this study at the Nanjing First Hospital, Nanjing, China. The patients were requested to end previous medications or therapies for at least two weeks prior to the beginning of the study.
The patients were then given 1 gram of berberine per day, orally for two months. Blood samples were taken both before and after two months of berberine treatment. Fasting blood levels of glucose, LDL-c, cholesterol, HDL-c, triglyceride and blood insulin were measured using standard methods routinely applied in hospitals. Liver and kidney functions were also monitored in the patients.

[7] = tested on: InsR; assay: Cell surface InsR expression in HepG2 cells (flow cytometry); format: cell-based, human; conditions: HepG2, 2.5-15 μg/ml, eight hours
Experimental: The effect of berberine was also time-dependent. HepG2 cells were treated with 7.5 μg/ml for 0, 2, 4, 6, 8 or 24 hours and total RNA was isolated as described above for slot blot and RT-PCR assays of InsR mRNA and ACTB mRNA expression. The level of InsR mRNA increased 4 h after exposure of cells to berberine and reached the peak level of 2.5-fold of the control at 8 h; the expression of InsR mRNA remained high for at least 24 h (FIG. 16). HepG2 cells cultured with 0, 2.5, 5, 10 or 15 μg/ml of berberine or normal mouse IgG (FIG. 17) for eight hours then detached, washed and resuspended in FACS solution (PBS with 0.5% BSA and 0.02% sodium azide) at a density of 1×10^6 cells/ml. Cells were then incubated with a monoclonal antibody to InsR (NeoMarkers, Fremont, Calif.) at a final dilution of 1:100 (room temperature, 0.5 h). An isotype-matched, nonspecific mouse IgG was used as a control for nonspecific staining. Then, cells were washed and stained with FITC conjugated goat-anti-mouse IgG (Santa Cruz Biotech, 1:200 dilution). The fluorescent intensity was examined by flow cytometry (FAC Sort, Becton Dickinson, Calif.).

[8] = After BBR treatment 1 g/day, Bid, 2 months

Compound: COc1ccc2cc3[n+](cc2c1OC)CCc1cc2c(cc1-3)OCO2 [berberine]
- LDLR promoter activity [1]: no effect
- mRNA stability of HMG-CoA reductase [2]: not altered
- expressions of LucUTR-3 and Luc-UTR-4 or the wild type [3]: without affecting
- increase of level of Luc-UTR-2 mRNA [3]: 2.5 fold
- fraction unbound [4]: 0.62
- LD50 ([5]; intraperitoneal, peritoneal injection): 30 to 32.2 mg/kg
- LD50 ([5]; intravenous injection): 7.6 to 10.2 mg/kg
- LD50 ([5]; sc, subcutaneous injection): 13.9 to 20 mg/kg
- fasting blood glucose after treatment ([6]; 1 gram per day orally, two months, Mean ±SE, before 10.7±0.56): 8.0 ± 0.45 mmol/L
- cholesterol after treatment ([6]; 1 gram per day orally, two months, before 6.1±±0.11): 4.7 ± 0.16 mmol/L
- blood pressure after treatment ([6]; 1 gram per day orally, two months, before 156/86): 133/79
- Blood Pressure [6, 8]: 133/79
- Blood Cholesterol [6, 8]: 4.7 ± 0.16 mmol/L
- Blood Insulin [6, 8]: 12.1 ± 1.35 mlU/L
- Blood Triglyceride [6, 8]: 1.47 ± 0.14 mmol/L
- FBG (fasting blood glucose) [6, 8]: 8.0 ± 0.45 mmol/L
- Blood Pressure ([6]; Before BBR treatment): 156/86
- Blood Cholesterol ([6]; Before BBR treatment): 6.1 ± 0.11 mmol/L
- Blood Insulin ([6]; Before BBR treatment): 17 ± 2.15 mlU/L
- Blood Triglyceride ([6]; Before BBR treatment): 2.0 ± 0.22 mmol/L
- FBG (fasting blood glucose) ([6]; Before BBR treatment): 10.7 ± 0.56 mmol/L
- cell surface InsR expression [7]: increased cell surface expression
